Data: article PMC9979347 (ACS Omega, 2023)
Several values for one entry are separate records, joined by “and”; a condition that tells them apart may be missing. Identical values can stand only once. Entries after “also recorded” stand apart in the source; their conditions may differ. Like-named read-outs stand apart in the source and are kept apart here. Values belong to the molecule of their own block, whether it stands above or below them.

Columns and labels:
hCA XII = hCA XII (Homo sapiens, UniProt O43570); test: biochemical
hCA I = hCA I (Homo sapiens, UniProt P00915); test: stopped-flow CO2 hydration inhibition assay; assay type: biochemical
hCA II = hCA II (Homo sapiens, UniProt P00918); test: stopped-flow CO2 hydration inhibition assay; assay type: biochemical
hCA IX = hCA IX (Homo sapiens, UniProt Q16790); test: biochemical; assay type: biochemical
SR = test: NCI-60 SRB screen; assay type: cell-based, human; settings: five-dose, 48 h
HEK293T cells [1] = settings: for selectivity against colorectal carcinoma HCT116 cells: HEK293T IC50 versus HCT116 GI50; for average cancer cell fold selectivity: HEK293T IC50 versus average NCI-60 GI50; for IC50: read-out: IC50 (μM ± SD) normal HEK293T cells, MTT, 48 h, triplicate; for cancer cell selectivity compared to non-cancerous HEK293T cells: up to
hCA I, II, IX, and XII = test: stopped-flow CO2 hydration inhibition assay, across the four isoforms; assay type: biochemical, human
hypoxic HCT116 cells = test: cells; settings: Homo sapiens, HCT-116, 48 h, read-out: Cytotoxicity IC50 (μM ± SD) HCT116
recombinant Pim-1 kinase [2] = biological target: T1, recombinant Pim-1 kinase (Homo sapiens, UniProt P11309); test: biochemical; settings: Pim-1 kinase IC50 (μM ± SD), ADP-Glo
HEK293T cells [3] = test: cells; settings: Homo sapiens, HEK-293T, 48 h, read-out: IC50 (μM ± SD) normal HEK293T cells, MTT, 48 h, triplicate
hypoxic LOX IMVI cells = test: cells; settings: Homo sapiens, 48 h, read-out: Cytotoxicity IC50 (μM ± SD) LOX IMVI
hypoxic U251 cells = test: cells; settings: Homo sapiens, U-251, 48 h, read-out: Cytotoxicity IC50 (μM ± SD) U251
K-562 = test: NCI-60 SRB screen; assay type: cell-based; settings: Homo sapiens, K562, 48 h
HCT116 cells [4] = test: cell cycle analysis by propidium iodide flow cytometry; assay type: cell-based, human; settings: HCT116, 2.94 μM, 24 h
HCT116 cells [5] = test: Annexin V-FITC/PI apoptosis assay; assay type: cell-based, human; settings: HCT116, 2.94 μM, 24 h
[6] = system: ROS level in HCT116 cells; test: reactive oxygen species fluorometric assay; assay type: cell-based, human; settings: HCT116, 2.94 μM
[7] = system: Nrf2 in HCT116 cell nuclei; test: Nrf2 transcription factor ELISA on nuclear protein; assay type: cell-based, human
recombinant Pim-1 kinase [8] = biological target: T1, recombinant Pim-1 kinase
HCT15 = test: NCI-60 SRB screen; assay type: cell-based; settings: Homo sapiens, HCT-15, 48 h

T1 sequence (P11309 whole entry): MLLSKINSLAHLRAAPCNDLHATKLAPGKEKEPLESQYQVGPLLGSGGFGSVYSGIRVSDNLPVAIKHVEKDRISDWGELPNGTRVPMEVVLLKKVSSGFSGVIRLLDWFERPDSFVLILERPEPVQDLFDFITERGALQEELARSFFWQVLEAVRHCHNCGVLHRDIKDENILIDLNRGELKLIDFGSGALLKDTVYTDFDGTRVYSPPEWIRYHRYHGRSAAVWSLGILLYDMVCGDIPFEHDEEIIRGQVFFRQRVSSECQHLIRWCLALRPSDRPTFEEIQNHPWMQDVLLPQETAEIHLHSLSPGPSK
Sequence of hCA XII (O43570 25-354): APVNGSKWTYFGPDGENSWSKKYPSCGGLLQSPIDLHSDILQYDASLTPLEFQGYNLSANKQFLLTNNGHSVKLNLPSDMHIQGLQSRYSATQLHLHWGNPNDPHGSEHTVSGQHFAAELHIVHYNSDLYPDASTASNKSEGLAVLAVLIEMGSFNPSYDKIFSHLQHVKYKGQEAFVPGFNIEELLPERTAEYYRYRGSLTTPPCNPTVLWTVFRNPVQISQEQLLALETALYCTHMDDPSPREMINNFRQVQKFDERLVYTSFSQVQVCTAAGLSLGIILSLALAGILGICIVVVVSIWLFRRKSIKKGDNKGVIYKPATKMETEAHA
Sequence of hCA I (P00915 whole entry): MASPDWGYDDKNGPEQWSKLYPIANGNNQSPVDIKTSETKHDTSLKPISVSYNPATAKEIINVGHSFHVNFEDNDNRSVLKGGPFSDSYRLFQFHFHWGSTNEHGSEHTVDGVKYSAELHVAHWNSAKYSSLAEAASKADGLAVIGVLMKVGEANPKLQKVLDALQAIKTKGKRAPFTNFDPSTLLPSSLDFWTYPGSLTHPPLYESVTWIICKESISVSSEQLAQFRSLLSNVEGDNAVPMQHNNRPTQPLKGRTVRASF

SMILES: COc1ccc(C(=O)/C=C/c2ccccc2Cl)cc1S(N)(=O)=O [4a, 5-[(2E)-3-(2-Chlorophenyl)prop-2-enoyl]-2-methoxybenzene-1-sulfonamide]
- Ki (hCA XII): > 10 µM
- Ki (hCA I): > 10 µM
- Ki (hCA II): > 10 µM
- Ki (hCA IX): > 10 µM

SMILES: COc1ccc(C(=O)/C=C/c2cccc(Cl)c2)cc1S(N)(=O)=O [4b, 5-[(2E)-3-(3-Chlorophenyl)prop-2-enoyl]-2-methoxybenzene-1-sulfonamide]
- Ki (hCA XII): > 10 µM
- Ki (hCA I): > 10 µM
- Ki (hCA II): > 10 µM
- GI50 (SR): sub-micromolar
- Ki (hCA IX): > 10 µM

SMILES: COc1ccc(C(=O)/C=C/c2cccc(Br)c2)cc1S(N)(=O)=O [4d, 5-[(2E)-3-(3-Bromophenyl)prop-2-enoyl]-2-methoxybenzene-1-sulfonamide]
- Ki (hCA I): 0.85 µM
- selectivity against colorectal carcinoma HCT116 cells (HEK293T cells [1]): ca. 50 fold
- average cancer cell fold selectivity (HEK293T cells [1]): ca. 20 fold
- IC50 (HEK293T cells [1]): 52.7 ± 2.03 µM
- cancer cell selectivity compared to non-cancerous HEK293T cells (HEK293T cells [1]): up to 50 fold
- selectivity toward hCA I and hCA II over hCA IX and hCA XII (hCA I, II, IX, and XII): ca. 10 fold
- Ki (hCA I, II, IX, and XII; read-out: average Ki value against the four tested isoforms, hCA I, II, IX, XII): 4 µM
- IC50 (hypoxic HCT116 cells): 6.32 ± 0.38 µM
- IC50 (recombinant Pim-1 kinase [2]): ~1.06 µM and 1.06 µM
- IC50 (HEK293T cells [3]): ~53 µM
- Ki (hCA II): 0.5 µM
- IC50 (hypoxic LOX IMVI cells): 38.3 ± 1.63 µM
- GI50 (SR): sub-micromolar
- IC50 (hypoxic U251 cells): 14.8 ± 0.61 µM

SMILES: COc1ccccc1/C=C/C(=O)c1ccc(OC)c(S(N)(=O)=O)c1 [4e, 2-Methoxy-5-[(2E)-3-(2-methoxyphenyl)prop-2-enoyl]benzene-1-sulfonamide]
- GI50 (K-562): 0.35 µM

SMILES: COc1ccc(C(=O)/C=C/c2ccc(Cl)c(Cl)c2)cc1S(N)(=O)=O [4i, 5-[(2E)-3-(3,4-Dichlorophenyl)prop-2-enoyl]-2-methoxybenzene-1-sulfonamide]
- GI50 (SR): sub-micromolar

SMILES: COc1ccc(C(=O)/C=C/c2cccc3ccccc23)cc1S(N)(=O)=O [4j, 2-Methoxy-5-[(2E)-3-(naphthalen-1-yl)prop-2-enoyl]benzene-1-sulfonamide]
- cell cycle arrest phase (HCT116 cells [4]): arrested the cell cycle of HCT116 cells at the G1/S phase; also recorded: arresting cell growth at the G1/S phase
- percentage of cells at the G2/M phase (HCT116 cells [4]): 6%
- percentage of cells in G1 (G0-G1) phase (HCT116 cells [4]): 52%
- percentage of cells in S phase (HCT116 cells [4]): 42%
- Ki (hCA I): > 10 µM
- selectivity against colorectal carcinoma HCT116 cells (HEK293T cells [1]): ~15 fold
- average cancer cell fold selectivity (HEK293T cells [1]): ~9 fold
- IC50 (HEK293T cells [1]): 20.4 ± 0.94 µM
- cancer cell selectivity compared to non-cancerous HEK293T cells (HEK293T cells [1]): up to 50 fold
- early apoptosis (HCT116 cells [5]): 8.3%
- fold increase of total apoptotic cells versus control (HCT116 cells [5]): 25 fold
- late apoptosis (HCT116 cells [5]): 27.8%
- total apoptotic cells (HCT116 cells [5]): 39.5%
- IC50 (hypoxic HCT116 cells): 2.94 ± 0.19 µM
- IC50 (recombinant Pim-1 kinase [2]): ~0.34 µM and 0.34 µM
- IC50 (HEK293T cells [3]): ~20 µM
- ROS level increase compared to DMSO-treated cells [6]: ca. 50%
- Ki (hCA II): > 10 µM
- IC50 (hypoxic LOX IMVI cells): 12.1 ± 0.54 µM
- fold increase in transcriptionally active nuclear Nrf2 ([7]; HCT116, 2.94 μM, versus DMSO): ca. 3.3 fold
- Nrf2 (ng/mL ± SD) ([7]; HCT116 nuclei, 2.94 μM, control 0.89): 2.92 ng/mL
- GI50 (SR): sub-micromolar
- selectivity to hCA IX over hCA I and hCA II / other tested isoforms (hCA IX): ca. six-fold selectivity; also recorded: more than six-fold selective; also recorded: greater than six-fold selectivity
- fold more potent than staurosporine on Pim-1 kinase (recombinant Pim-1 kinase [8]): ca. 1.4 fold
- IC50 (hypoxic U251 cells): 4.6 ± 0.26 µM

Second part, led by results:

- Ki (hCA XII): > 10 µM
- Ki (hCA I): > 10 µM
- Ki (hCA II): > 10 µM
- Ki (hCA IX): 4.71 µM
SMILES: COc1ccc(C(=O)/C=C/c2ccccc2Br)cc1S(N)(=O)=O [4c, 5-[(2E)-3-(2-Bromophenyl)prop-2-enoyl]-2-methoxybenzene-1-sulfonamide]

- Ki (hCA XII): > 10 µM
- Ki (hCA I): > 10 µM
- Ki (hCA II): > 10 µM
- Ki (hCA IX): > 10 µM
SMILES: COc1ccc(C(=O)/C=C/c2ccc3ccccc3c2)cc1S(N)(=O)=O [4k, 2-Methoxy-5-[(2E)-3-(Naphthalen-2-Yl)Prop-2-Enoyl]Benzene-1-Sulfonamide]
- GI50 (HCT15): 0.58 µM
- GI50 (SR): sub-micromolar

- Ki (hCA I): > 10 µM
SMILES: COc1ccc(C(=O)/C=C/c2cc3c(cc2Br)OCO3)cc1S(N)(=O)=O [4l, 5-[(2E)-3-(6-Bromo-2H-1,3-benzodioxol-5-yl)prop-2-enoyl]-2-methoxybenzene-1-sulfonamide]
- GI50 (K-562): 0.45 µM

- Ki (hCA XII): 5.25 µM
- Ki (hCA I): 2.32 µM
- Ki (hCA II): 4.59 µM
- Ki (hCA IX): 1.39 µM
SMILES: COc1ccc(C(C)=O)cc1S(N)(=O)=O [compound 3, 5-acetyl-2-methoxybenzene-1-sulfonamide]
